Test results reported in patent US6737383B1, “Herbicidal oxadiazolidines” (priority 1999, dated 2004).

Assays:
blackgrass = assay: Test B pre/postemergence blackgrass; format: in vivo, Alopecurus myosuroides
Outline: (§1)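 Response is a visual 0-to-10 score relative to untreated plants, where 0 means no effect and 10 means complete control, taken twelve to sixteen days after application. Treatments went onto soil at planting and onto foliage of 1- to 4-leaf plants, using a surfactant-containing non-phytotoxic solvent.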

surinam grass = assay: Test B pre/postemergence surinam grass; format: in vivo, Brachiaria decumbens
Outline: as §1

cocklebur = assay: Test B pre/postemergence cocklebur; format: in vivo, Xanthium strumarium
Outline: as §1

giant foxtail = assay: Test B pre/postemergence giant foxtail; format: in vivo, Setaria faberii
Outline: as §1

morningglory = assay: Test B pre/postemergence morningglory; format: in vivo, Ipomoea hederacea
Outline: as §1

pigweed = assay: Test B pre/postemergence pigweed; format: in vivo, Amaranthus retroflexus
Outline: as §1

rape = assay: Test B pre/postemergence rape; format: in vivo, Brassica napus
Outline: as §1

soybean = assay: Test B pre/postemergence soybean; format: in vivo, Glycine max
Outline: as §1

velvetleaf = assay: Test B pre/postemergence velvetleaf; format: in vivo, Abutilon theophrasti
Outline: as §1

wheat = assay: Test B pre/postemergence wheat; format: in vivo, Triticum aestivum
Outline: as §1

wild oat = assay: Test B pre/postemergence wild oat; format: in vivo, Avena fatua
Outline: as §1

purple nutsedge = assay: Test B pre/postemergence purple nutsedge; format: in vivo, Cyperus rotundus
Outline: as §1

smallflower flatsedge = assay: Test B flood test smallflower flatsedge; format: in vivo, Cyperus difformis
Outline: (§2)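 Flood test on plants grown to the 2-leaf stage; treated plants kept in greenhouse twelve to sixteen days, then visually rated against controls on a 0 (no effect) to 10 (complete control) scale.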

duck salad = assay: Test B flood test duck salad; format: in vivo, Heteranthera limosa
Outline: as §2

bamyardgrass = assay: Test B flood test barnyardgrass; format: in vivo, Echinochloa crus-galli
Outline: as §2

[1] = Postemergence, Rate 250 g/ha, scale 0 to 10
[2] = Postemergence, Rate 500 g/ha, scale of 0 to 10 where 0 is no effect and 10 is complete control
[3] = Preemergence, Rate 62 g/ha, scale of 0 to 10 where 0 is no effect and 10 is complete control
[4] = Preemergence, Rate 125 g/ha, scale of 0 to 10 where 0 is no effect and 10 is complete control
[5] = Preemergence, Rate 250 g/ha, scale 0 to 10, 0 is no effect, 10 is complete control
[6] = Preemergence, Rate 500 g/ha, scale 0 to 10, 0 is no effect, 10 is complete control
[7] = Rate 62 g/ha, Postemergence, scale 0 to 10, 0 no effect, 10 complete control
[8] = Rate 125 g/ha, Postemergence, scale 0 to 10, 0 is no effect, 10 is complete control
[9] = Postemergence, Rate 250 g/ha, scale 0 to 10, 0 no effect, 10 complete control
[10] = Rate 62 g/ha, flood test species, Pre-emergence, visual evaluation after twelve to sixteen days
[11] = Rate 125 g/ha, under heading Pre-emergence, flood test species, visual evaluation after twelve to sixteen days
[12] = Rate 250 g/ha, Pre-emergence (flood test species), scale 0 to 10, 0 is no effect, 10 is complete control
[13] = Rate 500 g/ha, Pre-emergence, flood test species, scale 0 to 10 (0 no effect, 10 complete control)
[14] = Preemergence, Rate 62 g/ha, scale 0 to 10 (0 no effect, 10 complete control)
[15] = Rate 62 g/ha, Postemergence, scale of 0 to 10 where 0 is no effect and 10 is complete control
[16] = Postemergence block (flood test species), Rate 250 g/ha, scale 0 to 10
[17] = Postemergence section (flood test species), Rate 500 g/ha, scale of 0 to 10 where 0 is no effect and 10 is complete control
[18] = Rate 125 g/ha, Postemergence section (flood test species), scale 0 to 10, 0 is no effect, 10 is complete control
[19] = Rate 62 g/ha, Postemergence (flood test species), scale of 0 to 10 where 0 is no effect and 10 is complete control

CCC=CCn1c(=O)on(C(=O)N(c2ccccc2)C(C)C)c1=O [Compound 454]
0: Plant response rating, Blackgrass (blackgrass; [3]) | Plant response rating, Blackgrass (blackgrass; [4]) | Blackgrass plant response rating (blackgrass; [7]) | Blackgrass plant response rating (blackgrass; [8]) | B. signalgrass plant response rating (surinam grass; [9]) | Plant response rating, B. signalgrass (surinam grass; [3]) | Plant response rating, B. signalgrass (surinam grass; [4]) | B. signalgrass plant response rating (surinam grass; [7]) | B. signalgrass plant response rating (surinam grass; [8]) | Cocklebur plant response rating (cocklebur; [1]) | Cocklebur plant response rating (cocklebur; [2]) | Plant response rating, Cocklebur (cocklebur; [3]) | Plant response rating, Cocklebur (cocklebur; [4]) | Cocklebur plant response rating (cocklebur; [5]) | Cocklebur plant response rating (cocklebur; [6]) | Cocklebur plant response rating (cocklebur; [7]) | Cocklebur plant response rating (cocklebur; [8]) | Plant response rating, Morningglory (morningglory; [3]) | Plant response rating, Morningglory (morningglory; [4]) | Morningglory plant response rating (morningglory; [5]) | Morningglory plant response rating (morningglory; [6]) | Plant response rating, Redroot pigweed (pigweed; [3]) | Redroot pigweed plant response rating (pigweed; [7]) | Redroot pigweed plant response rating (pigweed; [8]) | Rape plant response rating (rape; [1]) | Plant response rating, Rape (rape; [3]) | Plant response rating, Rape (rape; [4]) | Rape plant response rating (rape; [5]) | Rape plant response rating (rape; [6]) | Rape plant response rating (rape; [7]) | Rape plant response rating (rape; [8]) | Plant response rating, Soybean (soybean; [3]) | Plant response rating, Soybean (soybean; [4]) | Soybean plant response rating (soybean; [5]) | Soybean plant response rating (soybean; [6]) | Velvetleaf plant response rating (velvetleaf; [1]) | Plant response rating, Velvetleaf (velvetleaf; [3]) | Plant response rating, Velvetleaf (velvetleaf; [4]) | Velvetleaf plant response rating (velvetleaf; [7]) | Velvetleaf plant response rating (velvetleaf; [8]) | Wheat plant response rating (wheat; [1]) | Plant response rating, Wheat (wheat; [3]) | Plant response rating, Wheat (wheat; [4]) | Wheat plant response rating (wheat; [5]) | Wheat plant response rating (wheat; [6]) | Wheat plant response rating (wheat; [7]) | Wheat plant response rating (wheat; [8]) | Wild oats plant response rating (wild oat; [1]) | Plant response rating, Wild oats (wild oat; [3]) | Plant response rating, Wild oats (wild oat; [4]) | Wild oats plant response rating (wild oat; [5]) | Wild oats plant response rating (wild oat; [7]) | Wild oats plant response rating (wild oat; [8]) | Nutsedge plant response rating (purple nutsedge; [1]) | Plant response rating, Nutsedge (purple nutsedge; [3]) | Nutsedge plant response rating (purple nutsedge; [5]) | Nutsedge plant response rating (purple nutsedge; [6]) | Nutsedge plant response rating (purple nutsedge; [7]) | Nutsedge plant response rating (purple nutsedge; [8]) | Plant response rating, S. Flatsedge (0 to 10 scale, 0 is no effect, 10 is complete control) (smallflower flatsedge; [10]) | S. Flatsedge plant response rating (0 to 10 scale, 0 is no effect, 10 is complete control) (smallflower flatsedge; [11]) | S. Flatsedge plant response rating (smallflower flatsedge; [12]) | S. Flatsedge plant response rating (smallflower flatsedge; [13]) | Plant response rating, Ducksalad (0 to 10 scale, 0 is no effect, 10 is complete control) (duck salad; [10]) | Ducksalad plant response rating (0 to 10 scale, 0 is no effect, 10 is complete control) (duck salad; [11]) | Ducksalad plant response rating (duck salad; [12]) | Ducksalad plant response rating (duck salad; [13]) | Plant response rating, Barnyardgrass (0 to 10 scale, 0 is no effect, 10 is complete control) (bamyardgrass; [10]) | Barnyardgrass plant response rating (0 to 10 scale, 0 is no effect, 10 is complete control) (bamyardgrass; [11]) | Barnyardgrass plant response rating (bamyardgrass; [12]) | Barnyardgrass plant response rating (bamyardgrass; [13])
6: Blackgrass plant response rating (blackgrass; [6]) | Plant response rating, Giant foxtail (giant foxtail; [3]) | Velvetleaf plant response rating (velvetleaf; [6])
1: Soybean plant response rating (soybean; [7])
5: Velvetleaf plant response rating (velvetleaf; [5])
2: Blackgrass plant response rating (blackgrass; [1]) | Blackgrass plant response rating (blackgrass; [2]) | Blackgrass plant response rating (blackgrass; [5]) | B. signalgrass plant response rating (surinam grass; [2]) | Giant foxtail plant response rating (giant foxtail; [7]) | Giant foxtail plant response rating (giant foxtail; [8]) | Redroot pigweed plant response rating (pigweed; [1]) | Plant response rating, Redroot pigweed (pigweed; [4]) | Soybean plant response rating (soybean; [1]) | Soybean plant response rating (soybean; [8]) | Wild oats plant response rating (wild oat; [6])
9: Giant foxtail plant response rating (giant foxtail; [2]) | Plant response rating, Giant foxtail (giant foxtail; [4]) | Morningglory plant response rating (morningglory; [8]) | Redroot pigweed plant response rating (pigweed; [5])
7: Morningglory plant response rating (morningglory; [7])
4: B. signalgrass plant response rating (surinam grass; [5]) | B. signalgrass plant response rating (surinam grass; [6])
10: Giant foxtail plant response rating (giant foxtail; [5]) | Giant foxtail plant response rating (giant foxtail; [6]) | Morningglory plant response rating (morningglory; [1]) | Redroot pigweed plant response rating (pigweed; [6])
8: Giant foxtail plant response rating (giant foxtail; [1])

CCN(C(=O)n1oc(=O)n(C2CCCCCC2)c1=O)C1CCCCC1 [Compound 429]
1: Giant foxtail plant response rating (giant foxtail; [8]) | Morningglory plant response rating (morningglory; [8]) | Barnyardgrass plant response rating (bamyardgrass; [16])
6: Ducksalad plant response rating (duck salad; [16]) | Ducksalad plant response rating (duck salad; [17])
9: S. Flatsedge plant response rating (smallflower flatsedge; [17])
7: Barnyardgrass plant response rating (bamyardgrass; [17])
3: Blackgrass plant response rating (blackgrass; [1]) | Blackgrass plant response rating (blackgrass; [2]) | Blackgrass plant response rating (blackgrass; [6]) | Plant response rating, Giant foxtail (giant foxtail; [14]) | Morningglory plant response rating (morningglory; [2]) | Soybean plant response rating (soybean; [2]) | S. Flatsedge plant response rating (smallflower flatsedge; [16])
0: Plant response rating, Blackgrass (blackgrass; [14]) | Plant response rating, Blackgrass (blackgrass; [4]) | Blackgrass plant response rating (blackgrass; [5]) | Blackgrass plant response rating (blackgrass; [15]) | B. signalgrass plant response rating (surinam grass; [9]) | B. signalgrass plant response rating (surinam grass; [2]) | Plant response rating, B. signalgrass (surinam grass; [14]) | Plant response rating, B. signalgrass (surinam grass; [4]) | B. signalgrass plant response rating (surinam grass; [5]) | B. signalgrass plant response rating (surinam grass; [15]) | B. signalgrass plant response rating (surinam grass; [8]) | Cocklebur plant response rating (cocklebur; [1]) | Cocklebur plant response rating (cocklebur; [2]) | Plant response rating, Cocklebur (cocklebur; [14]) | Plant response rating, Cocklebur (cocklebur; [4]) | Cocklebur plant response rating (cocklebur; [5]) | Cocklebur plant response rating (cocklebur; [6]) | Cocklebur plant response rating (cocklebur; [15]) | Cocklebur plant response rating (cocklebur; [8]) | Giant foxtail plant response rating (giant foxtail; [15]) | Plant response rating, Morningglory (morningglory; [14]) | Plant response rating, Morningglory (morningglory; [4]) | Morningglory plant response rating (morningglory; [5]) | Morningglory plant response rating (morningglory; [6]) | Redroot pigweed plant response rating (pigweed; [1]) | Redroot pigweed plant response rating (pigweed; [2]) | Plant response rating, Redroot pigweed (pigweed; [14]) | Plant response rating, Redroot pigweed (pigweed; [4]) | Redroot pigweed plant response rating (pigweed; [5]) | Redroot pigweed plant response rating (pigweed; [6]) | Redroot pigweed plant response rating (pigweed; [8]) | Rape plant response rating (rape; [1]) | Rape plant response rating (rape; [2]) | Plant response rating, Rape (rape; [14]) | Plant response rating, Rape (rape; [4]) | Rape plant response rating (rape; [5]) | Rape plant response rating (rape; [6]) | Rape plant response rating (rape; [8]) | Plant response rating, Soybean (soybean; [14]) | Plant response rating, Soybean (soybean; [4]) | Soybean plant response rating (soybean; [5]) | Soybean plant response rating (soybean; [6]) | Plant response rating, Velvetleaf (velvetleaf; [14]) | Plant response rating, Velvetleaf (velvetleaf; [4]) | Velvetleaf plant response rating (velvetleaf; [5]) | Velvetleaf plant response rating (velvetleaf; [6]) | Velvetleaf plant response rating (velvetleaf; [8]) | Wheat plant response rating (wheat; [1]) | Wheat plant response rating (wheat; [2]) | Plant response rating, Wheat (wheat; [14]) | Plant response rating, Wheat (wheat; [4]) | Wheat plant response rating (wheat; [5]) | Wheat plant response rating (wheat; [6]) | Wheat plant response rating (wheat; [8]) | Wild oats plant response rating (wild oat; [1]) | Wild oats plant response rating (wild oat; [2]) | Plant response rating, Wild oats (wild oat; [14]) | Plant response rating, Wild oats (wild oat; [4]) | Wild oats plant response rating (wild oat; [5]) | Wild oats plant response rating (wild oat; [6]) | Wild oats plant response rating (wild oat; [8]) | Nutsedge plant response rating (purple nutsedge; [1]) | Nutsedge plant response rating (purple nutsedge; [2]) | Plant response rating, Nutsedge (purple nutsedge; [14]) | Plant response rating, Nutsedge (purple nutsedge; [4]) | Nutsedge plant response rating (purple nutsedge; [5]) | Nutsedge plant response rating (purple nutsedge; [6]) | Nutsedge plant response rating (purple nutsedge; [8]) | S. Flatsedge plant response rating (smallflower flatsedge; [18]) | Ducksalad plant response rating (duck salad; [19]) | Barnyardgrass plant response rating (bamyardgrass; [19]) | Barnyardgrass plant response rating (bamyardgrass; [18])
2: Blackgrass plant response rating (blackgrass; [8]) | Giant foxtail plant response rating (giant foxtail; [1]) | Morningglory plant response rating (morningglory; [1]) | Soybean plant response rating (soybean; [1]) | Soybean plant response rating (soybean; [8]) | Velvetleaf plant response rating (velvetleaf; [1]) | Velvetleaf plant response rating (velvetleaf; [2]) | Ducksalad plant response rating (duck salad; [18])
10: Plant response rating, Giant foxtail (giant foxtail; [4]) | Giant foxtail plant response rating (giant foxtail; [5]) | Giant foxtail plant response rating (giant foxtail; [6])
4: B. signalgrass plant response rating (surinam grass; [6]) | Giant foxtail plant response rating (giant foxtail; [2])
